Data: the supplement of paper PMC10307832

Assays:
Assay in all cases: relative viability (nuclei count vs DMSO), 5 days (fraction); higher = more cells survive
[1] = compound: CCn1c(-c2nonc2N)nc2c(C#CC(C)(C)O)ncc(OC[C@H]3CCCNC3)c21 + CS(=O)(=O)CCNCc1ccc(-c2ccc3ncnc(Nc4ccc(OCc5cccc(F)c5)c(Cl)c4)c3c2)o1 [Lapatinib] (partner 2 µM)
Outline: (§1)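 Medians of duplicate plates are given as relative viability. That measure is the nuclei count in treated wells divided by the count in vehicle wells. Counts were taken on 4× images of lung cancer cell lines in 1536-well plates, 5 days after pin-tool dosing the day after seeding with one drug alone or a fixed anchor-drug dose plus five library-drug doses (not always all listed) in √10 steps.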

[2] = compound: CCn1c(-c2nonc2N)nc2c(C#CC(C)(C)O)ncc(OC[C@H]3CCCNC3)c21 + CC1(C)CCC(c2ccc(Cl)cc2)=C(CN2CCN(c3ccc(C(=O)NS(=O)(=O)c4ccc(N[C@H](CCN5CCOCC5)CSc5ccccc5)c(S(=O)(=O)C(F)(F)F)c4)cc3)CC2)C1 [Navitoclax] (partner 0.5 µM)
Outline: as §1

[3] = compound: CCOC1=CC=CC=C1N=NC2=C(NN(C2=O)C3=NC(=CS3)C4=CC=CC=C4)C [BAM7] + CC1(C)CCC(c2ccc(Cl)cc2)=C(CN2CCN(c3ccc(C(=O)NS(=O)(=O)c4ccc(N[C@H](CCN5CCOCC5)CSc5ccccc5)c(S(=O)(=O)C(F)(F)F)c4)cc3)CC2)C1 [Navitoclax] (partner 0.5 µM)
Outline: as §1

[4] = compound: CCOC1=CC=CC=C1N=NC2=C(NN(C2=O)C3=NC(=CS3)C4=CC=CC=C4)C [BAM7] + COc1cccc2cc(-c3nc([C@H]4CC[C@H](C(=O)O)CC4)n4ncnc(N)c34)[nH]c12 [OSI-027] (partner 0.5 µM)
Outline: as §1

## UMC-11
[1]; first compound 0.01 µM
  relative viability: 1.08
[1]; first compound 0.03162 µM
  relative viability: 0.987
[1]; first compound 0.1 µM
  relative viability: 0.952
[1]; first compound 0.3162 µM
  relative viability: 0.818
[1]; first compound 1 µM
  relative viability: 1.08
[2]; first compound 0.01 µM
  relative viability: 0.323
[2]; first compound 0.03162 µM
  relative viability: 0.288
[2]; first compound 0.1 µM
  relative viability: 0.323
[2]; first compound 0.3162 µM
  relative viability: 0.29
[2]; first compound 1 µM
  relative viability: 0.3
[3]; first compound 0.5 µM
  relative viability: 0.306
[3]; first compound 5 µM
  relative viability: 0.319
[3]; first compound 15.81 µM
  relative viability: 0.391
[3]; first compound 50 µM
  relative viability: 0.372
[4]; first compound 0.5 µM
  relative viability: 0.465
[4]; first compound 5 µM
  relative viability: 0.461
[4]; first compound 15.81 µM
  relative viability: 0.461
[4]; first compound 50 µM
  relative viability: 0.487
